Source: patent publication US20250136576A1, “Heterocyclic Compounds and Uses Thereof” (ACEA Therapeutics, Inc., priority 2021, published 2025)
Where two headings read alike, the source gives them in different places.

Assays:
KM12-luc cells = experiment: Cell proliferation and growth inhibition assay (CCK-8) in KM12-luc; format: cell-based; conditions: KM12-luc cells, treated with test compounds for 72 hrs, CCK-8 viability, read-out: NTRK IC50 in KM12-luc
Summary of the method: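 Cells were grown at 37 °C, 5% CO2 with 10% FBS: MV-4-11 in IMDM, H1975 in RPMI 1640, KM12-luc in DMEM. Viability was read by CCK-8 (1-4 hrs reagent incubation, absorbance at OD450). IC50 came from a non-linear sigmoidal dose-response fit.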

H1975 cells = experiment: Cell proliferation and growth inhibition assay (CCK-8) in H1975; format: cell-based; conditions: treated with test compounds for 72 hrs, CCK-8 viability, read-out: EGFR IC50 in H1975
Procedure: MV-4-11 and H1975 cells were obtained from the American Type Culture Collection and KM12-luc cells were obtained from JCRB Cell Bank. All cell lines were maintained at 37° C. with 5% C02, in media supplemented with 10% fetal bovine serum and penicillin (100 units/mL) and streptomycin (100 μg/mL). MV-4-11 cells were maintained in Iscove's Modified Dubecco's Medium, H1975 cells were cultured with RPMI 1640 media, and KM12-luc cells were maintained in Dulbecco's Modification of Eagle's Medium. CCK-8 reagent was obtained from Yeasen.
Cell proliferation was assessed by CCK-8 assay (Yeasen) per the manufacturer's instructions. The MV-4-11 (AML), H1975, and KM12-luc cells were seeded at 30,000, 3,000 and 2,500 cells per well onto 96-well plates, and after a 24 h incubation, the cells were treated with test compounds for 72 hrs. Cell viability was assayed by incubating the cells with CCK-8 reagent for 1-4 hrs. Absorbance was measured at OD450 using the Beckman DTX880. The data was calculated using GraphPad Prism version 6.01. The IC50 values were fitted using a non-linear regression model with a sigmoidal dose response.

CCC(=O)Nc1cccc(Nc2ncc(F)c(Nc3ccc(N4CCN(C(C)=O)CC4)cc3OC)n2)c1 [Compound 156, N-(3-((4-((4-(4-acetylpiperazin-1-yl)-2-methoxyphenyl)amino)-5-fluoropyrimidin-2-yl)amino)phenyl)propionamide]
IC50 (KM12-luc cells; KM12-Luc, 72 h): 0.37 µM
IC50 (H1975 cells; Homo sapiens, NCI-H1975, 72 h): 2.79 µM

CCN(CCN(C)C)c1cc(F)c(Nc2nc(-c3cn(C)c4ccccc34)c3cc[nH]c3n2)cc1NC(C)=O [Compound 201, N-(2-((2-(dimethylamino)ethyl)(ethyl)amino)-4-fluoro-5-((4-(1-methyl-1H-indol-3-yl)-7H-pyrrolo[2,3-d]pyrimidin-2-yl)amino)phenyl)acetamide]
IC50 (KM12-luc cells; KM12-Luc, 72 h): 0.444 µM
IC50 (H1975 cells; Homo sapiens, NCI-H1975, 72 h): 1.1 µM

CCC(=O)Nc1cc(Nc2nc(-c3cn(C)c4ccccc34)c3cc[nH]c3n2)ccc1N(CC)CCN(C)C [Compound 212b, N-(2-((2-(dimethylamino)ethyl)(ethyl)amino)-5-((4-(1-methyl-1H-indol-3-yl)-7H-pyrrolo[2,3-d]pyrimidin-2-yl)amino)phenyl)propionamide]
IC50 (KM12-luc cells; KM12-Luc, 72 h): 0.037 µM
IC50 (H1975 cells; Homo sapiens, NCI-H1975, 72 h): 1.66 µM

CC(=O)Nc1cc(Nc2nc(-c3c[nH]c4ccccc34)c3cc[nH]c3n2)cc(F)c1N(C)CCN(C)C [Compound 248a, N-(5-((4-(1H-indol-3-yl)-7H-pyrrolo[2,3-d]pyrimidin-2-yl)amino)-2-((2-(dimethylamino)ethyl)(methyl)amino)-3-fluorophenyl)acetamide]
IC50 (KM12-luc cells; KM12-Luc, 72 h): 0.0128 µM
IC50 (H1975 cells): 0.442 µM

CC(=O)Nc1cc(Nc2nc(-c3c[nH]c4ccccc34)c3cc[nH]c3n2)cc(F)c1N(C)CCN(C)C [Compound 248b, N-(5-((4-(1H-indol-3-yl)-7H-pyrrolo[2,3-d]pyrimidin-2-yl)amino)-2-((2-(dimethylamino)ethyl)(methyl)amino)-3-fluorophenyl)acetamide]
IC50 (KM12-luc cells): 0.0171 µM
IC50 (H1975 cells): 1.05 µM

CC(=O)Nc1cc(Nc2ncc(C(F)(F)F)c(-c3cn(C)c4ccccc34)n2)ccc1N(C)CCN(C)C [Compound 296, N-(2-((2-(dimethylamino)ethyl)(methyl)amino)-5-((4-(1-methyl-1H-indol-3-yl)-5-(trifluoromethyl)pyrimidin-2-yl)amino)phenyl)acetamide]
IC50 (KM12-luc cells): 0.0107 µM
IC50 (H1975 cells; Homo sapiens, NCI-H1975, 72 h): 1.07 µM

CCC(=O)Nc1cc(Nc2ncc(C(F)(F)F)c(-c3c[nH]c4ccccc34)n2)ccc1N(C)CCN(C)C [Compound 298, N-(5-((4-(1H-indol-3-yl)-5-(trifluoromethyl)pyrimidin-2-yl)amino)-2-((2-(dimethylamino)ethyl)(methyl)amino)phenyl)propionamide]
IC50 (KM12-luc cells; KM12-Luc, 72 h): 0.044 µM
IC50 (H1975 cells; Homo sapiens, NCI-H1975, 72 h): 0.289 µM

CC(=O)Nc1cc(Nc2ncc(C(F)(F)F)c(-c3c[nH]c4ccccc34)n2)ccc1NCCN(C)C [Compound 303a, N-(5-((4-(1H-indol-3-yl)-5-(trifluoromethyl)pyrimidin-2-yl)amino)-2-((2-(dimethylamino)ethyl)amino)phenyl)acetamide]
IC50 (KM12-luc cells; KM12-Luc, 72 h): 0.0191 µM
IC50 (H1975 cells; Homo sapiens, NCI-H1975, 72 h): 0.109 µM

CC(=O)Nc1cc(Nc2ncc(C(F)(F)F)c(-c3cn(C)c4ccccc34)n2)ccc1N(C)CCN(C)C [Compound 305, N-(2-((2-(dimethylamino)ethyl)(methyl)amino)-5-((4-(1-methyl-1H-indol-3-yl)-5-(trifluoromethyl)pyrimidin-2-yl)amino)phenyl)acetamide]
IC50 (KM12-luc cells): 0.0289 µM
IC50 (H1975 cells): 0.653 µM

CC(=O)Nc1cc(Nc2ncc(C(F)(F)F)c(-c3c[nH]c4cccc(F)c34)n2)ccc1N(C)CCN(C)C [Compound 316, N-(2-((2-(dimethylamino)ethyl)(methyl)amino)-5-((4-(4-fluoro-1H-indol-3-yl)-5-(trifluoromethyl)pyrimidin-2-yl)amino)phenyl)acetamide]
IC50 (KM12-luc cells; KM12-Luc, 72 h): 0.0216 µM
IC50 (H1975 cells; Homo sapiens, NCI-H1975, 72 h): 0.477 µM

CC(=O)Nc1cc(Nc2ncc(C(F)(F)F)c(-c3c[nH]c4c(C)cccc34)n2)c(F)cc1N(C)CCN(C)C [Compound 362, N-(2-((2-(dimethylamino)ethyl)(methyl)amino)-4-fluoro-5-((4-(7-methyl-1H-indol-3-yl)-5-(trifluoromethyl)pyrimidin-2-yl)amino)phenyl)acetamide]
IC50 (KM12-luc cells; KM12-Luc, 72 h): 0.0326 µM
IC50 (H1975 cells; Homo sapiens, NCI-H1975, 72 h): 0.0186 µM

CC(=O)Nc1cc(Nc2ncc(C(F)(F)F)c(-c3cn(C)c4c(C)cccc34)n2)ccc1N(C)CCN(C)C [Compound 368, N-(5-((4-(1,7-dimethyl-1H-indol-3-yl)-5-(trifluoromethyl)pyrimidin-2-yl)amino)-2-((2-(dimethylamino)ethyl)(methyl)amino)phenyl)acetamide]
IC50 (KM12-luc cells; KM12-Luc, 72 h): 0.0229 µM
IC50 (H1975 cells; Homo sapiens, NCI-H1975, 72 h): 0.356 µM

COc1cccc2c(-c3nc(Nc4cc(NC(C)=O)c(N(C)CCN(C)C)cc4F)ncc3C(F)(F)F)c[nH]c12 [Compound 378, N-(2-((2-(dimethylamino)ethyl)(methyl)amino)-4-fluoro-5-((4-(7-methoxy-1H-indol-3-yl)-5-(trifluoromethyl)pyrimidin-2-yl)amino)phenyl)acetamide]
IC50 (KM12-luc cells; KM12-Luc, 72 h): 0.0434 µM
IC50 (H1975 cells; Homo sapiens, NCI-H1975, 72 h): 0.0261 µM

CC(=O)Nc1cc(Nc2ncc(Cl)c(-c3c[nH]c4ccccc34)n2)cc(F)c1N1CCC(N(C)C)C1 (stereo not shown) [Compound 392, N-(5-((5-chloro-4-(1H-indol-3-yl)pyrimidin-2-yl)amino)-2-(3-(dimethylamino)pyrrolidin-1-yl)-3-fluorophenyl)acetamide]
IC50 (KM12-luc cells; KM12-Luc, 72 h): 0.0181 µM
IC50 (H1975 cells; Homo sapiens, NCI-H1975, 72 h): 0.862 µM

CC(=O)Nc1cc(Nc2ncc(Cl)c(-c3cn(C)c4ccccc34)n2)ccc1NCCN(C)C [Compound 400a, N-(5-((5-chloro-4-(1-methyl-1H-indol-3-yl)pyrimidin-2-yl)amino)-2-((2-(dimethylamino)ethyl)amino)phenyl)acetamide]
IC50 (KM12-luc cells; KM12-Luc, 72 h): 0.042 µM
IC50 (H1975 cells; Homo sapiens, NCI-H1975, 72 h): 1.01 µM

CC(=O)Nc1cc(Nc2ncc(Cl)c(-c3c[nH]c4c(F)cccc34)n2)ccc1N(C)CCN(C)C [Compound 412, N-(5-((5-chloro-4-(7-fluoro-1H-indol-3-yl)pyrimidin-2-yl)amino)-2-((2-(dimethylamino)ethyl)(methyl)amino)phenyl)acetamide]
IC50 (KM12-luc cells; KM12-Luc, 72 h): 0.0084 µM
IC50 (H1975 cells; Homo sapiens, NCI-H1975, 72 h): 0.38 µM

CC(=O)Nc1cc(Nc2ncc(Cl)c(-c3c[nH]c4c(C)cccc34)n2)ccc1N(C)CCN(C)C [Compound 423, N-(5-((5-chloro-4-(7-methyl-1H-indol-3-yl)pyrimidin-2-yl)amino)-2-((2-(dimethylamino)ethyl)(methyl)amino)phenyl)acetamide]
IC50 (KM12-luc cells; KM12-Luc, 72 h): 0.0047 µM
IC50 (H1975 cells; Homo sapiens, NCI-H1975, 72 h): 0.0665 µM

COc1cccc2c(-c3nc(Nc4ccc(N(C)CCN(C)C)c(NC(C)=O)c4)ncc3Cl)c[nH]c12 [Compound 433, N-(5-(5-chloro-4-(7-methoxy-1H-indol-3-yl)pyrimidin-2-ylamino)-2-((2-(dimethylamino)ethyl)(methyl)amino)phenyl)acetamide]
IC50 (KM12-luc cells; KM12-Luc, 72 h): 0.0139 µM
IC50 (H1975 cells; Homo sapiens, NCI-H1975, 72 h): 0.506 µM

CCN(CCN(C)C)c1ccc(Nc2ncc(Cl)c(-c3c[nH]c4ccccc34)n2)cc1NC(C)=O [Compound 442, N-(5-((5-chloro-4-(1H-indol-3-yl)pyrimidin-2-yl)amino)-2-((2-(dimethylamino)ethyl)(ethyl)amino)phenyl)acetamide]
IC50 (KM12-luc cells; KM12-Luc, 72 h): 0.0064 µM
IC50 (H1975 cells; Homo sapiens, NCI-H1975, 72 h): 0.328 µM

COc1cccc2c(-c3ccnc(Nc4ccc(N(C)CCN(C)C)c(NC(C)=O)c4)n3)c[nH]c12 [Compound 554, N-(2-((2-(dimethylamino)ethyl)(methyl)amino)-5-((4-(7-methoxy-1H-indol-3-yl)pyrimidin-2-yl)amino)phenyl)acetamide]
IC50 (H1975 cells; Homo sapiens, NCI-H1975, 72 h): 1.03 µM

CCC(=O)Nc1cc(Nc2nccc(-c3c[nH]c4c(OC)cccc34)n2)ccc1N(C)CCN(C)C [Compound 555, N-(2-((2-(dimethylamino)ethyl)(methyl)amino)-5-((4-(7-methoxy-1H-indol-3-yl)pyrimidin-2-yl)amino)phenyl)propionamide]
IC50 (H1975 cells; Homo sapiens, NCI-H1975, 72 h): 2.25 µM

CC(=O)Nc1cc(Nc2ncc(C(F)(F)F)c(-c3cn(C)c4c(C)cccc34)n2)ccc1N1CC[C@@H](N(C)C)C1 [Compound R-373, (R)—N-(5-((4-(1,7-dimethyl-1H-indol-3-yl)-5-(trifluoromethyl)pyrimidin-2-yl)amino)-2-(3-(dimethylamino)pyrrolidin-1-yl)phenyl)acetamide]
IC50 (KM12-luc cells; KM12-Luc, 72 h): 0.0228 µM
IC50 (H1975 cells; Homo sapiens, NCI-H1975, 72 h): 0.923 µM

COc1cccc2c(-c3nc(Nc4ccc(N5CC[C@@H](N(C)C)C5)c(NC(C)=O)c4)ncc3C(F)(F)F)cn(C)c12 [Compound R-389, (R)—N-(2-(3-(dimethylamino)pyrrolidin-1-yl)-5-((4-(7-methoxy-1-methyl-1H-indol-3-yl)-5-(trifluoromethyl)pyrimidin-2-yl)amino)phenyl)acetamide]
IC50 (KM12-luc cells; KM12-Luc, 72 h): 0.0248 µM
IC50 (H1975 cells; Homo sapiens, NCI-H1975, 72 h): 0.94 µM

COc1cccc2c(-c3nc(Nc4ccc(N5CC[C@@H](N(C)C)C5)c(NC(C)=O)c4)ncc3Cl)cn(C)c12 [Compound R-435, (R)—N-(5-(5-chloro-4-(7-methoxy-1-methyl-1H-indol-3-yl)pyrimidin-2-ylamino)-2-(3-(dimethylamino)pyrrolidin-1-yl)phenyl)acetamide]
IC50 (KM12-luc cells; KM12-Luc, 72 h): 0.0319 µM
IC50 (H1975 cells; Homo sapiens, NCI-H1975, 72 h): 1.04 µM
